Data published in patent US8795632B2, “Disease animal model for chronic pain” (Astellas Pharma Inc., priority 2008, dated 2014).

Tests used:
Sprague-Dawley rats = experiment: Muscle pressure pain threshold value after repeated administration of reserpine; assay type: in vivo, rat; settings: for time after reserpine final administration until which muscle pressure pain threshold value was statistically significantly low vs solvent group: reserpine 1 mg/kg s.c. once a day for 3 days
Procedure: Measurement of muscle pressure pain threshold value was carried out in accordance with the method of Schafers et al. (Schafers M. et al., Pain, 104, 579-588, 2003). A pressure stimulus of gradually increasing to 250 g at the maximum was added to the rat right hind leg gastrocnemius muscle. […] The measurement was carried out 3 times at each point of time of the measurement, and the average was used as the measurement value. Measurement of the skin pain sensation threshold value was carried out in accordance with the method of Chaplan et al. (Chaplan et al., J. Neurosci. Methods, 53, 55-63, 1994). This was measured using a series of von Frey filaments having different diameters which may add a constant pressure. […] The von Frey filament was applied using the up and down method. That is, by firstly applying a filament of middle diameter, a filament having one rank smaller diameter was applied when the withdrawal reaction was observed or a filament having one rank larger diameter was applied when the withdrawal reaction was not observed. The skin pain sensation threshold value at each point of time of the measurement was calculated as a hind paw withdrawal reaction threshold value (g) using the calculation formula reported by Chaplan et al. (Chaplan et al., described above). Influences of reserpine upon the muscle pressure pain threshold value and skin pain sensation threshold value were examined by the following protocol. A total of 24 animals for each of male and female rats were used. After measuring muscle pressure pain threshold value and skin pain sensation threshold value before the reserpine treatment (base line), they were divided based on the reserpine administration doses into a solvent (0.5% acetic acid aqueous solution) group, a reserpine 0.1 mg/kg group, a 0.3 mg/kg group and a 1 mg/kg group (the number of animals per one group was 6). The solvent or reserpine was subcutaneously administered on the back of the rats of each group once a day for 3 days. All of the administration volume of the solvent or reserpine was set to 1 ml per 1 kg body weight of each animal. After final administration of the solvent or reserpine, the muscle pressure pain threshold value and skin pain sensation threshold value of each rat were measured 1, 3, 5, 7, 10, 14 and 21 days thereafter.
All of the measured values were expressed as average value±standard error. Statistical significance test of the measured values between the reserpine administration groups and the solvent administration group at each point of time was carried out by a two-way analysis of variance and the Bonferroni method. Probability value (P) of less than 5% was judged as statistically significant (P<0.05 was expressed as * in the graphs).

[1] = system: dopamine, norepinephrine and serotonin in the spinal cord, thalamus and prefrontal cortex; experiment: Amounts of dopamine, norepinephrine and serotonin in spinal cord, thalamus and prefrontal cortex after repeated administration of reserpine (HPLC-ECD); assay type: in vivo, rat
Procedure: Male Sprague-Dawley rats (7 weeks old, Japan SLC, Hamamatsu, Japan) were used as the animal.
A total of 96 rats were divided into 8 test schedules (collection of samples before administration and 1, 3, 5, 7, 10, 14 or 21 days after the final administration) and further divided each of them into a vehicle (0.5% acetic acid aqueous solution) administration group, a reserpine 0.1 mg/kg administration group, a 0.3 mg/kg administration group and a 1 mg/kg administration group, to 3 rats per group. As shown in Example 1, the vehicle or 0.1, 0.3 or 1 mg/kg of reserpine was repeatedly administered to each rat once a day for 3 days, and the brain and spinal cord were quickly collected 1, 3, 5, 7, 10, 14 or 21 days after the final administration. The thalamus and prefrontal cortex were separated from the brain on an ice-cold dish.
Regarding the sampling before administration, samples were collected before beginning of the repeated administration of vehicle or reserpine. The collected samples were quickly frozen and stored at −80° C. until their use in the measurements. On the day of the measurement, tissues of respective samples were subjected to wet weight measurement, homogenized in 0.2 M perchloric acid/0.1 mM EDTA-2Na solution using an ultrasonic homogenizer. After centrifugation at 15,000 g and at 4° C. for 15 minutes, the supernatant was adjusted to pH 3.5 using sodium acetate and filtered using a filter. Amounts of dopamine, norepinephrine and serotonin in these samples were measured using a high performance liquid chromatography (column: SC-50DS 30, 150 mm, Eicom Co., Ltd., Kyoto, Japan, mobile phase composition: 0.1 M sodium acetate buffer, 0.1 M citrate buffer, pH 3.5, 5 mg/l EDTA-2Na, 190 mg/l sodium octane sulfonic acid, 17% methanol) and an electrochemical detector (ECD-300, Eicom Co., Ltd., Kyoto, Japan). The measurement was carried out under conditions of flow rate 0.5 ml/min, applied voltage 750 mV and 25° C. Amounts of dopamine, norepinephrine and serotonin in the samples were quantified by comparing sample peak areas of respective standards measured on the same day of the sample measurement. All of the measured values were expressed as average value±standard error in the graphs, and unit of the measured values was set to ng/g tissue wet weight.
Statistical difference of the measured values between the reserpine administration group and the vehicle administration group in each test schedule was carried out by the two-way analysis of variance and the Bonferroni method. Probability value (P) of less than 5% was judged as statistically significant (P<0.05 was expressed as * in the graphs). In addition, average values of respective groups at each point of time were expressed as percentages of the average values of corresponding vehicle administration groups.

[2] = reserpine 0.1 mg/kg s.c. once a day for 3 days, 1 day after final administration
[3] = reserpine 0.3 mg/kg s.c. once a day for 3 days, 1 day after final administration
[4] = reserpine 1 mg/kg s.c. once a day for 3 days, 1 day after final administration
[5] = reserpine 1 mg/kg s.c. once a day for 3 days, after 21 days

SMILES: COC(=O)[C@H]1[C@H]2C[C@@H]3c4[nH]c5cc(OC)ccc5c4CCN3C[C@H]2C[C@@H](OC(=O)c2cc(OC)c(OC)c(OC)c2)[C@@H]1OC [reserpine]
- time after reserpine final administration until which muscle pressure pain threshold value was statistically significantly low vs solvent group (Sprague-Dawley rats; female rats): 7 days
- muscle pressure pain threshold value (Sprague-Dawley rats; male and female rats, reserpine 0.1, 0.3, 1 mg/kg s.c. once a day for 3 days, two-way analysis of variance vs solvent): significantly reduced
- time after reserpine final administration until which muscle pressure pain threshold value was statistically significantly low vs solvent group (Sprague-Dawley rats; male rats): 10 days
- muscle pressure pain threshold value (Sprague-Dawley rats; reserpine 1 mg/kg group, s.c. once a day for 3 days): markedly reduced
- duration of chronic muscle pain and chronic tactile allodynia after administration (Sprague-Dawley rats; reserpine administered to a mammal (summary statement)): ≥ 1 week
- amount of dopamine in the prefrontal cortex, % of the vehicle administration group [1, 2]: 49.1%
- amount of dopamine in the spinal cord, % of the vehicle administration group [1, 2]: 46.4%
- amount of dopamine in the thalamus, % of the vehicle administration group [1, 2]: 49.2%
- amount of norepinephrine in the prefrontal cortex, % of the vehicle administration group [1, 2]: 10.2%
- amount of norepinephrine in the spinal cord, % of the vehicle administration group [1, 2]: 19.1%
- amount of norepinephrine in the thalamus, % of the vehicle administration group [1, 2]: 43.8%
- amount of serotonin in the prefrontal cortex, % of the vehicle administration group [1, 2]: 42.0%
- amount of serotonin in the spinal cord, % of the vehicle administration group [1, 2]: 45.4%
- amount of serotonin in the thalamus, % of the vehicle administration group [1, 2]: 28.8%
- amount of dopamine in the prefrontal cortex, % of the vehicle administration group [1, 3]: 21.4%
- amount of dopamine in the spinal cord, % of the vehicle administration group [1, 3]: 26.3%
- amount of dopamine in the thalamus, % of the vehicle administration group [1, 3]: 53.2%
- amount of norepinephrine in the prefrontal cortex, % of the vehicle administration group [1, 3]: 0.7%
- amount of norepinephrine in the spinal cord, % of the vehicle administration group [1, 3]: 2.6%
- amount of norepinephrine in the thalamus, % of the vehicle administration group [1, 3]: 6.1%
- amount of serotonin in the prefrontal cortex, % of the vehicle administration group [1, 3]: 15.5%
- amount of serotonin in the spinal cord, % of the vehicle administration group [1, 3]: 15.7%
- amount of serotonin in the thalamus, % of the vehicle administration group [1, 3]: 14.8%
- amount of dopamine in the prefrontal cortex, % of the vehicle administration group [1, 4]: 13.4%
- amount of dopamine in the spinal cord, % of the vehicle administration group [1, 4]: 18.4%
- amount of dopamine in the thalamus, % of the vehicle administration group [1, 4]: 24.5%
- amount of norepinephrine in the prefrontal cortex, % of the vehicle administration group [1, 4]: 0.2%
- amount of norepinephrine in the spinal cord, % of the vehicle administration group [1, 4]: 0.6%
- amount of norepinephrine in the thalamus, % of the vehicle administration group [1, 4]: 1.2%
- amount of serotonin in the prefrontal cortex, % of the vehicle administration group [1, 4]: 4.6%
- amount of serotonin in the spinal cord, % of the vehicle administration group [1, 4]: 0.1%
- amount of serotonin in the thalamus, % of the vehicle administration group [1, 4]: 8.9%
- amount of dopamine in the prefrontal cortex, % of the vehicle administration group [1, 5]: 54.9%
- amount of dopamine in the spinal cord, % of the vehicle administration group [1, 5]: 70.1%
- amount of dopamine in the thalamus, % of the vehicle administration group [1, 5]: 66.5%
- amount of norepinephrine in the prefrontal cortex, % of the vehicle administration group [1, 5]: 29.1%
- amount of norepinephrine in the spinal cord, % of the vehicle administration group [1, 5]: 59.4%
- amount of norepinephrine in the thalamus, % of the vehicle administration group [1, 5]: 46.0%
- amount of serotonin in the prefrontal cortex, % of the vehicle administration group [1, 5]: 47.0%
- amount of serotonin in the spinal cord, % of the vehicle administration group [1, 5]: 67.8%
- amount of serotonin in the thalamus, % of the vehicle administration group [1, 5]: 60.7%
